Measured values: patent publication US6395749B1, “Carboxamide compounds, methods, and compositions for inhibiting PARP activity” (Guilford Pharmaceuticals Inc., priority 1998, dated 2002)

Tested on: C57/BL male mice
Experiment: Septic shock assay (LPS plus galactosamine challenge)
Assay type: in vivo, mouse
Conditions: 60, 20, 6 and 2 mg/kg daily IP for three days, first dose 30 minutes after challenge; dose of the result not stated
Description: Groups of 10 C57/BL male mice weighing 18 to 20 g were administered a test compound, 1-carboxynaphthalene-1-carboxamide at the doses of 60, 20, 6 and 2 mg/kg, daily, by intraperitoneal (IP) injection for three consecutive days. Each animal was first challenged with lipopolysaccharide (LPS, from E. Coli, LD100 of 20 mg/animal IV) plus galactosamine (20 mg/animal IV). The first dose of test compound in a suitable vehicle was given 30 minutes after challenge, and the second and third doses were given 24 hours later on day 2 and day 3 respectively, with only the surviving animals receiving the second or third dose of the test compound. Mortality was recorded every 12 hours after challenge for the three-day testing period. 1-Carboxy-naphthalene-1-carboxamide provided a protection against mortality from septic shock of about 40%.

NC(=O)c1cccc2cccc(C(=O)O)c12 [1-Carboxy-naphthalene-1-carboxamide, 8-carboxynaphthalene-1-carboxamide]
protection against mortality from septic shock: about 40%
